The values that follow come from patent publication US20260043007A1, “METHOD FOR PRODUCING CARDIAC MUSCLES” (Kyoto University, priority 2022, published 2026).

In assay [1] the test system is marker genes of atrial myocytes (NR2F1, NR2F2, NPPA, KCNA5, KCNJ3, TBX5 and MYL7). Nature of the assay: Expression analysis of atrial myocyte marker genes in sorted cell subpopulations. Type of assay: cell-based, human. As to conditions: both CD151-high and CD151-low, compared to DMSO-added control population. As to the method: (§1) On the 6th day of differentiation, the medium was replaced with cardiomyocyte induction medium 3, and from the 8th day of differentiation onwards, 3 μM of γ-secretase inhibitor (LY411575) that inhibits Notch signaling was added when changing the medium, and the cells were cultured at 37° C. under 5% oxygen conditions until the 10th day. Cells added with 0.1% DMSO were also prepared as a control. Thereafter, the medium was changed on the 10th, 13th, 15th, and 17th days, and after the medium change on the 10th day, the cells were cultured under normal oxygen conditions until the 20th day. As the cardiomyocyte induction medium 3, StemPro-34 SFM supplemented with 1% L-glutamine, 150 μg/ml transferrin, 50 μg/ml ascorbic acid, 4×10^-4 M monothioglycerol, and 5 ng/ml VEGF was used.
(§2) The expression of marker genes indicating Notch signal activity and atrial myocyte markers was analyzed for the cardiomyocyte subpopulations “DMSO/CD151-high”, “DMSO/CD151-low”, “Notch inhibitor/CD151-high”, and “Notch inhibitor/CD151-low” obtained in Experimental Example 2.
(§3) According to the conventional method, total RNA was extracted from each cell subpopulation and expression analysis was performed for the target gene of Notch signal (HEY2) and the marker genes of atrial myocytes (NR2F1, NR2F2, NPPA, KCNA5, KCNJ3, TBX5 and MYL7). […]

The test system of assay [2] is CD151 expression in EmGFP-positive cells induced from human iPS cell line (1390D4 strain). Kind of assay: Sorting of atrial myocyte population based on CD151 expression level (flow cytometry). Type of assay: cell-based. The note with it: 3 μM LY411575 from day 8 to day 20 of differentiation, mean ± standard error. The procedure:
A cell population containing cardiomyocytes was induced from iPSC under atrial myocyte differentiation conditions or ventricular myocyte differentiation conditions. As iPSC, a double knock-in human iPS cell line (1390D4 strain) was used, in which EmGFP was inserted into the TNNI1 locus and mCherry was inserted into the TNNI3 locus as reporter proteins.
To differentiate iPSC into cardiomyocytes, iPSC was seeded into low-adhesion 6-well plates (2×10^6 cells/1.5 ml/well) and statically cultured at 37° C. and 5% oxygen to form embryoid bodies (day 0). The culture medium used was StemPro-34 SFM (Thermo Fisher Scientific) supplemented with 1% L-glutamine, 150 μg/ml transferrin, […] ascorbic acid, 4×10^-4 M monothioglycerol, 10 μM Rock inhibitor (Y-27632), 2 ng/ml BMP4, and 0.5% Matrigel. […]
On the 20th day of culture, the cell population containing atrial myocytes was dispersed into single cells and the cell number was counted. […] CD151 expression in EmGFP-positive cells was analyzed using a flow cytometer (BD FACS Aria Fusion cell sorter). The fluorescence intensity of 95% or more of the negative control cells was set as the threshold, and the cell subpopulations showing fluorescence intensity lower than the threshold were defined as “CD151-low” and the cell subpopulations showing fluorescence intensity higher than the threshold were defined as “CD151-high”. […]
On the technique in general: A flow cytometer gives signals particle by particle.

Assay [3] relates to HEY2 (target gene of Notch signal). Nature of the assay: Expression analysis of the target gene of Notch signal (HEY2) in sorted cell subpopulations. Type of assay: cell-based, human. As to conditions: both CD151-high and CD151-low, compared to DMSO-added control. As to the method: as §1, §2, §3
The test system of assay [4] is cardiomyocyte subpopulations differentiated from human iPS cells. Nature of the assay: Proportion of atrial myocytes by whole-cell patch clamp electrophysiology. Type of assay: cell-based. The note with it: for atrial myocytes (%): APD 30/90 less than 0.3 and dv/dtmax 10 or more. The procedure:
as §1
The proportion of atrial myocytes was determined by an electrophysiological method for the “Notch inhibitor/CD151-high” and “Notch inhibitor/CD151-low” cardiomyocyte subpopulations obtained in Experimental Example 2.
Each cell subpopulation was cultured on a fibronectin-coated cover glass. Culture was performed at 37° C. under normal oxygen conditions using StemPro-34 SFM supplemented with 1% L-glutamine, 150 μg/ml transferrin, 50 ug/ml ascorbic acid, 4×10^-4 M monothioglycerol, and 5 ng/ml VEGF, with medium change every 3 days. Cells on the 15th and 16th days of culture were subjected to electrophysiological analysis.
Analysis was performed using the whole-cell patch clamp method using Axopatch 200B amplifier (Molecular Devices) and pCLAMP software. Electrodes were made with glass capillaries (WPI) using a micropipette puller and filled with intracellular solution (130 mM KOH, 130 mM L-aspartic acid, 20 mM KC1, 5 mM NaCl, 10 mM HEPES, 5 mM Mg-ATP, 10 mM EGTA, 1 mM MgC12, PH 7.2). Experiments were performed at 35-37° C. while perfusing Gey's balanced salt solution (Sigma) as the extracellular solution. The spontaneous action potential of each cell was recorded for 1 min in current clamp mode. APD30, APD90, and maximum velocity of waveform rise (dv/dtmax) were calculated from the average waveform of 8-10 consecutive waveforms. Cells showing a waveform with APD 30/90 of less than 0.3 and dv/dtmax of 10 or more were defined as atrial myocytes. Cells showing a waveform with APD 30/90 of 0.3 or more and dv/dtmax of 10 or more or dv/dtmax of less than 10 were classified as other cells. […]
A general note: Patch clamp records ionic current or voltage across a cell membrane.

The mark [5] stands for this setting: CD151-high subpopulation, n = 19.
[6] abbreviates: CD151-low subpopulation, n = 20.

Molecules are shown by their SMILES.

Consider `C[C@H](NC(=O)[C@@H](O)c1cc(F)cc(F)c1)C(=O)N[C@@H]1C(=O)N(C)c2ccccc2-c2ccccc21` [Notch inhibitor], for which the “expression of atrial myocyte markers” value in assay [1] is recorded as “increased”. In assay [2], the “Cell population (%) CD151-high” value is 39.9 ± 3.3% and the “Cell population (%) CD151-low” value is listed as 60.1 ± 3.3%. Also, the “expression of the HEY2 gene” value in assay [3] is “reduced”. Besides, in assay [4] (setting [5]), the “other cells (%)” value is listed as 68% and the “atrial myocytes (%)” value is listed as 32%. Further, in assay [4] (setting [6]), the “other cells (%)” value is given as 20% and the “atrial myocytes (%)” value came to 80%.
